From patent US11672795B2, “Compositions and methods for treating pulmonary vascular disease” (UNIVERSITY OF PITTSBURGH-OF THE COMMONWEALTH SYSTEM OF …, priority 2016, dated 2023)
Read-outs that look alike come from different tables or passages of the source.

What was measured:
Assay type in all cases: in vivo, rat
GLS1 = settings: monocrotaline-exposed rats; for GLS activity: daily BAPN or daily i.p. verteporfin 25 mg/kg; for GLS1 activity in whole rat lung: daily i.p. 10 mg/kg, C968 from day 2 (prevention), CB839 from day 7 (reversal), vs vehicle
Protocol: According to the manufacturer instructions (Glutaminase Microplate Assay Kit, Cohesion Biosciences), flash frozen rat lung tissue (0.1 g/sample) was homogenized in 1 mL of assay buffer on ice and centrifuged at 8000 g 4° C. for 10 min. Protein concentration was determined by Bradford assay. Samples, normalized to total protein (100 μg), were incubated with kit reagents for 1 hr at 37° C., and absorbances were measured at 420 nm.
(§1) To induce PH, male Sprague-Dawley rats (10-14 week old) were injected intraperitoneally with 60 mg/kg monocrotaline (Sigma-Aldrich). After two days, rats underwent intraperitoneal injection daily with 25 mg/kg of verteporfin (Active Biochemicals Company, Ltd) solubilized in 5% dimethyl sulfoxide (DMSO, Sigma-Aldrich). Two days after the last injection on day 21 post-monocrotaline injection, right heart catheterization was performed followed by harvest of lung tissue and CD31+ cells for RNA or protein extraction, paraffin embedding, or cryopreservation with OCT (Sigma-Aldrich), as we described (2).
(§2) To induce PH, male Sprague-Dawley rats (10-14 week old) were injected intraperitoneally with 60 mg/kg monocrotaline (Sigma-Aldrich). After two days, serial intraperitoneal injections were given daily of C968 (10 mg/kg, Sigma-Aldrich), and after seven days post-monocrotaline injection, serial intraperitoneal injections were given daily of CB839 (10 mg/kg, Selleck Chemicals). Two days after the last injection on day 21 post-monocrotaline injection, right heart catheterization was performed followed by harvest of lung tissue and CD31+ cells for RNA or protein extraction, paraffin embedding, or cryopreservation with OCT (Sigma-Aldrich), as we described (2).

[1] = test system: monocrotaline-exposed rats; assay: Atomic force microscopy of pulmonary arteriolar stiffness in monocrotaline-exposed rats
Protocol: Rat lungs were inflated with 0.025 g of OCT by g of body weight, frozen on liquid nitrogen vapor and store at −80° C. Rat lung slices (10 μm thickness) were cut out from their glass slide and the fragment of glass containing the sample was glued on the bottom of a 50 mm dish (Willco Glass Bottom Dish). Before measurements the sample was first rinsed and after covered with 4 ml of PBS 1×. The mechanical properties of the samples were studied using a BioScope Catalyst atomic force microscope (Bruker) coupled with and optical microscope (Leica DMI6000B) that enables, by phase contrast, to pinpoint the areas of interest. For each sample, from five to a maximum of 9 vessels (<100 μm diameter) were analyzed using the “Point and Shoot” method, collecting from 35 to 80 force-distance curves at just as many discrete points. The experiments of microindentation were performed in PBS using a probe with a Borosilicate Glass spherical tip (5 μm of diameter) and a cantilever with a nominal spring constant of 0.06 N/m (Novascan). Indentations were carried out using a velocity of 2 μm/s, in relative trigger mode and by setting the trigger threshold to 2 nN. The apparent Young's modulus was calculated using the NanoScope Analysis 1.50 software (Bruker), fitting the force curves to the Hertz spherical indentation model and using a Poisson's ratio of 0.4. To avoid large indentation, a minimum and a maximum Force Fit Boundary of 5% and 25% respectively of the whole force curve was taken into account for the fit.

[2] = Left ventricular function and systemic blood pressure in treated monocrotaline-exposed rats; settings: for adverse effects on left ventricular cardiac function: daily BAPN or daily i.p. verteporfin 25 mg/kg
[3] = test system: monocrotaline-exposed rats; assay: Right heart catheterization and right ventricular weight (RVSP, Fulton index) in monocrotaline-exposed rats; settings: for hemodynamic and histologic indices of PH: BAPN or verteporfin alone; for PAH severity as quantified by RVSP: daily BAPN or daily i.p. verteporfin 25 mg/kg; for right ventricular remodeling (Fulton index, RV/LV+S) / right ventricular systolic pressure (RVSP): daily i.p. 10 mg/kg, C968 from day 2, CB839 from day 7
Protocol: Monocrotaline-treated rats: As we previously described (7, 8), male Sprague-Dawley rats (10-14 week old) were injected with 60 mg/kg monocrotaline at time 0; at 0-4 weeks post-exposure, right heart catheterization was performed followed by harvest of lung tissue for RNA extraction or paraffin embedding, as described below (section: Tissue harvest).
After physiological measurements by direct right ventricular puncture, the pulmonary vessels were gently flushed with 1 cc of saline to remove the majority of blood cells, prior to harvesting cardiopulmonary tissue. The heart was removed, followed by dissection and weighing of the right ventricle (RV) and of the left ventricle+septum (LV+S). Organs were then harvested for histological preparation or flash frozen in liquid N2 for subsequent homogenization and extraction of RNA and/or protein. To further process lung tissue specifically, prior to excision, lungs were flushed with PBS at constant low pressure (approximately 10 mmHg) via right ventricular cannulation, followed by tracheal inflation of the left lung with 10% neutral-buffered formalin (Sigma-Aldrich) at a pressure of approximately 20 cm H2O. After excision and 16 hours of fixation in 10% neutral-buffered formalin at 25° C., lung tissues were paraffin embedded via an ethanol-xylene dehydration series, before being sliced into 5 μm sections (Hypercenter XP System and Embedding Center, Shandon).
as §1, §2
as §2, with “Finally, to investigate whether glutaminolysis itself is essential for promoting pulmonary vascular proliferation in PH, two separate pharmacologic inhibitors of GLS1 (C968 and CB-839) were administered in monocrotaline-exposed rats using either a disease prevention (FIG. 5A) or disease reversal (FIG. 5B) dosing protocol. To” for “To”, “C968 or CB-839” for “C968”, “C968 or CB-839” for “CB839”, “as” for “as we”, “previously (Bertero T, et al. Cell Reports. 2015; 13(5):1016-32).” for “(2).”

[4] = daily BAPN or daily i.p. verteporfin 25 mg/kg
[5] = daily i.p. 10 mg/kg C968 or CB-839, data not shown

SMILES	GLS activity (GLS1)	pulmonary arteriolar (<100 μm diameter) stiffness, atomic force microscopy [1, 4]	adverse effects on left ventricular cardiac function ([2]; data not shown)	hemodynamic and histologic indices of PH [3]	PAH severity as quantified by RVSP [3]	GLS1 activity in whole rat lung (GLS1)	adverse effects on left ventricular function [2, 5]	adverse effects on systemic blood pressure [2, 5]	right ventricular remodeling (Fulton index, RV/LV+S) [3]	right ventricular systolic pressure (RVSP) [3]	PAH severity, as quantified by vascular remodeling, arteriolar muscularization, RVSP and right ventricular hypertrophy ([3]; prevention experiment (C968) or reversal study)	pulmonary arteriolar (<100 μm diameter) stiffness, atomic force microscopy ([1]; daily CB839 vs vehicle)	GLS activity (GLS1; listed as verteporfin)	adverse effects on systemic blood pressure ([2]; daily i.p. verteporfin 25 mg/kg, data not shown)	PAH severity as quantified by RVSP ([3]; listed as verteporfin)	right ventricular remodelling (Fulton index) ([3]; daily i.p. verteporfin 25 mg/kg)
N#CCCN [BAPN, β-aminoproprionitrile]	decreased	decreased	without adverse effects	improvement	in a lower extent BAPN ameliorated	–	–	–	–	–	–	–	–	–	–	–
CN(C)c1ccc(C2Nc3ccc4ccccc4c3C3=C2C(=O)CC(C)(C)C3)cc1Br (centres unmarked) [C968, 5-(3-Bromo-4-(dimethylamino)phenyl)-2,2-dimethyl-2,3,5,6-tetrahydrobenzo[a]phenanthridin-4(1H)-one]	–	–	–	–	–	decreased	without adverse effects	without adverse effects	significantly decreased	significantly decreased	ameliorated	–	–	–	–	–
O=C(Cc1cccc(OC(F)(F)F)c1)Nc1ccc(CCCCc2nnc(NC(=O)Cc3ccccn3)s2)nn1 [CB839]	–	–	–	–	–	decreased	without adverse effects	without adverse effects	significantly decreased	significantly decreased	–	decreased	–	–	–	–
C=Cc1c(C)c2cc3nc(cc4[nH]c(cc5nc(cc1[nH]2)C(C)=C5CCC(=O)O)c(CCC(=O)OC)c4C)[C@@]1(C)C3=CC=C(C(=O)OC)[C@H]1C(=O)OC [Verteporfin, 3-[(23S,24R)-14-ethenyl-5-(3-methoxy-3-oxopropyl)-22,23-bis(methoxycarbonyl)-4,10,15,24-tetramethyl-25,26,27,28-tetraazahexacyclo[16.6.1.1^3,6.1^8,11.1^13,16.0^19,24]octacosa-1,3,5,7,9,11(27),12,14,16,18(25),19,21-dodecaen-9-yl]propanoic acid]	decrease	decreased	without adverse effects	robust improvement	ameliorated	–	–	–	–	–	–	–	improved	without adverse effects	reductions	reductions
